Data: the NIST ThermoML archive (doi:10.1021/acs.jced.8b00977)
± gives the expanded uncertainty stated by the source.

Columns and labels:
[1] = Crystal; DSC
[2] = Molar enthalpy of transition or fusion; conditions: Crystal; DSC

Triple point temperature [1]: 468.87 ± 1 K
Molar enthalpy of transition or fusion [2]: 17 ± 0.884 kcal/mol
Structure (SMILES): CC(=O)CC(c1ccccc1)c1c([O-])c2ccccc2oc1=O.[Na+] (configuration not stated) [warfarin sodium]
